Like-named read-outs stand apart in the source and are kept apart here.
Key:
[1] = Test of S9 metabolism stability in human; type: in vitro ADME; conditions: human S9, NADPH, 37° C., reaction time 30 min
Method: (§1) For the inventive compound, was carried out test of a S9 metabolism stability in human, rat and mouse.
(§2) Using MINISORP(75×12) NUNC-IMMUNO tube, a 0.5 μM I.S.-added reaction stopping solution (500 μL) and a 10 mmol/L NADPH solution (50 μL) were mixed. Subsequently, a S9 mixture (445 μL) and pure water (5 μL) were added to prepare an I.S.-added blank sample. Likewise, a S9 mixture (445 μL) and a 100 μM test substance solution (5 μL) were added, preparing an calibration curve sample.
(§3) A S9 mixture (1068 μL) was dispensed into MINISORP (75×12) NUNC-IMMUNO tube. On ice water, a 100 μM test substance solution (12 μL) was added, and pre-incubation was carried out at 37° C. for 5 minutes. An aliquot (450 μL) of this was fractionated, and a […] I.S.-added reaction stopping solution (500 μL) and a 10 mmol/L NADPH solution (50 μL) were added, to obtain an unreacted sample (reaction time; 0 min). To the residue after fractionation, a 10 mmol/L NADPH solution (70 μL) was added, and incubation was carried out at 37° C. for 30 minutes, and an aliquot (500 μL) was fractionated, then, a 0.5 μM I.S.-added reaction stopping solution (500 μL) was added, preparing a reacted sample (reaction time; 30 min). […]

[2] = Test of S9 metabolism stability in rat; type: in vitro ADME; conditions: rat S9, NADPH, 37° C., reaction time 30 min
Method: as §1, §2, §3

[3] = Test of S9 metabolism stability in mouse; type: in vitro ADME; conditions: mouse S9, NADPH, 37° C., reaction time 30 min
Method: as §1, §2, §3

[4] = target: T1, androgen receptor (Homo sapiens, UniProt P10275, DEL75-80/DUP470-473); experiment: Androgen receptor agonist activity by reporter gene assay method; type: cell-based
T1 construct: expressed in transfected cells; host or cells: human-derived CHP212 cells, stably transformed with pGL3-TATA-3xARE and pRC/RSV-hAR Kozak
T1 sequence (P10275 with tags, fused parts or gaps DEL75-80/DUP470-473): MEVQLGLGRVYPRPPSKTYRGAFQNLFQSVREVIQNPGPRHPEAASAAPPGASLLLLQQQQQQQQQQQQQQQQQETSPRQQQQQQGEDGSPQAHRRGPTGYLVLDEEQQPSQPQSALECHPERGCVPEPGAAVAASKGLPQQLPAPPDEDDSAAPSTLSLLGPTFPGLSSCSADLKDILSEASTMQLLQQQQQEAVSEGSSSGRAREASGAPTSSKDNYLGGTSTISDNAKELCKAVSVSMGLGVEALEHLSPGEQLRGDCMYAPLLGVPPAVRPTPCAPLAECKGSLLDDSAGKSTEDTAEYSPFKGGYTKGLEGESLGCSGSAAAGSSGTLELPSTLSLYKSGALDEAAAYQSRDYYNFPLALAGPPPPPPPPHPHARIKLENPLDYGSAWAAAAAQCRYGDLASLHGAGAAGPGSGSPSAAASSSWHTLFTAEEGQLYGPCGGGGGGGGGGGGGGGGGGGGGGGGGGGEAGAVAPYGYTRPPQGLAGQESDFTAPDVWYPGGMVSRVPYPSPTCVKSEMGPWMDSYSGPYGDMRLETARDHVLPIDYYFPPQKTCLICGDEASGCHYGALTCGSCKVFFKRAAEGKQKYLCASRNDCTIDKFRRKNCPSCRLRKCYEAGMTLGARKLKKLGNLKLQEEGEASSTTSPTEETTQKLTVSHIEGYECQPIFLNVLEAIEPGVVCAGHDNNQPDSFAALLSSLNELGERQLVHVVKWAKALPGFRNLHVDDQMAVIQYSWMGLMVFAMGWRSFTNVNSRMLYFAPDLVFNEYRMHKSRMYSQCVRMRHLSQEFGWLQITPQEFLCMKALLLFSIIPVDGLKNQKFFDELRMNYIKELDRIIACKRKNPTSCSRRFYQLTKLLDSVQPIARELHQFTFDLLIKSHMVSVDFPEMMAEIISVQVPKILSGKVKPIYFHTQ
Method: After shaking for 10 minutes, the luciferase activity was measured by EnVision 2103 Multilabel Reader (PerkinElmer Co., Ltd.).

[5] = agonist activity, transformed human-derived CHP212 cells with pGL3-TATA-3×ARE luciferase reporter and pRC/RSV-hAR Kozak, 24 hours, read-out: EC50

Row | EC50 [4, 5] [nM] | SMILES | also measured
1 | 14 | N#Cc1sc(N2CCCCC2C(O)C(F)(F)F)cc1Br (racemic) [Example 40, 3-bromo-5-[2-(2,2,2-trifluoro-1-hydroxyethyl)piperidin-1-yl]thiophene-2-carbonitrile] | 
2 | 1500 | CC1CCN(c2cc(Br)c(C#N)s2)CC1 [Example 12, 3-bromo-5-(4-methylpiperidin-1-yl)thiophene-2-carbonitrile] | 
3 | 1200 | CC(C)CN(C)c1cc(Br)c(C#N)s1 [Example 13, 3-bromo-5-[(methyl)(2-methylpropyl)amino]thiophene-2-carbonitrile] | 
4 | 43.3 | CCCN(CCC)c1cc(Br)c(C#N)s1 [Example 14, 3-bromo-5-(dipropylamino)thiophene-2-carbonitrile] | 
5 | 13.1 | C=CCN(CC=C)c1cc(Br)c(C#N)s1 [Example 15, 3-bromo-5-(diallylamino)thiophene-2-carbonitrile] | 
6 | 1600 | COCCN(CCOC)c1cc(Br)c(C#N)s1 [Example 16, 5-[bis(2-methoxyethyl)amino]-3-bromothiophene-2-carbonitrile] | 
7 | 4.9 | CCC1CCCCN1c1cc(Br)c(C#N)s1 (stereo not drawn) [Example 17, 3-bromo-5-(2-ethylpiperidin-1-yl)thiophene-2-carbonitrile] | 
8 | 36.2 | CCCC1CCCCN1c1cc(Br)c(C#N)s1 (stereo not drawn) [Example 18, 3-bromo-5-(2-propylpiperidin-1-yl)thiophene-2-carbonitrile] | 
9 | > 10000 | CCCN(CC(=O)OCC)c1cc(Br)c(C#N)s1 [Example 24, N-(4-bromo-5-cyanothiophen-2-yl)-N-propylglycine ethyl ester] | 
10 | > 10000 | CCCN(CC(=O)O)c1cc(Br)c(C#N)s1 [Example 26, N-(4-bromo-5-cyanothiophen-2-yl)-N-propylglycine] | 
11 | 580 | CCCN(CC#N)c1cc(Br)c(C#N)s1 [Example 28, 3-bromo-5-[(cyanomethyl)(propyl)amino]thiophene-2-carbonitrile] | 
12 | > 10000 | CCCN(CC=O)c1cc(Br)c(C#N)s1 [Example 32, 3-bromo-5-[(2-oxoethyl)(propyl)amino]thiophene-2-carbonitrile] | 
13 | > 10000 | CCC1CCCC(=O)N1c1cc(Br)c(C#N)s1 (stereo not drawn) [Example 35, 3-bromo-5-(2-ethyl-6-oxopiperidin-1-yl)thiophene-2-carbonitrile] | 
14 | 560 | CC(O)C1CCCCN1c1cc(Br)c(C#N)s1 (stereo not drawn) [Example 41, 3-bromo-5-[2-(1-hydroxyethyl)piperidin-1-yl]thiophene-2-carbonitrile] | 
15 | 1500 | N#Cc1sc(N2CCCCC2C#N)cc1Br (stereo not drawn) [Example 47, 5-(2-cyanopiperidin-1-yl)-3-bromo-thiophene-2-carbonitrile] | 

The remaining lines, values behind:

Row | SMILES | EC50 [4, 5] [nM] | also measured
16 | N#Cc1sc(N2CCCCC2C(O)C(F)(F)F)cc1Br (stereo not drawn) |  | Residual ratio (%) human [1]: 73.4%; Residual ratio (%) rat [2]: 40.1%; Residual ratio (%) mouse [3]: 39.1%
17 | CCCN(CC1CC1)c1cc(Br)c(C=O)s1 [Example 1, 3-bromo-5-[(cyclopropylmethyl)(propyl)amino]thiophene-2-carbaldehyde] | > 10000 | 
18 | CCCN(CC1CC1)c1cc(Br)c(C#N)s1 [Example 2, 3-bromo-5-[(cyclopropylmethyl)(propyl)amino]thiophene-2-carbonitrile] | 10.6 | 
19 | CCCN(CC1CC1)c1cc(C(F)(F)F)c(C#N)s1 [Example 5, 5-[(cyclopropylmethyl)(propyl)amino]-3-(trifluoromethyl)thiophene-2-carbonitrile] |  | EC50 [4]: 11.9 nM
20 | CCCN(CC1CC1)c1cc(C#N)c(C(F)(F)F)s1 [Example 7, 5-[(cyclopropylmethyl)(propyl)amino]-2-(trifluoromethyl)thiophene-3-carbonitrile] |  | EC50 [4]: 99.3 nM
21 | N#Cc1sc(N2CCCC2)cc1Br [Example 8, 3-bromo-5-(pyrrolidin-1-yl)thiophene-2-carbonitrile] | 1400 | 
22 | CC1CCCCN1c1cc(Br)c(C#N)s1 (stereo not drawn) [Example 9, 3-bromo-5-(2-methylpiperidin-1-yl)thiophene-2-carbonitrile] | 450 | 
23 | CCCN(CC(F)(F)F)c1cc(Br)c(C#N)s1 [Example 23, 3-bromo-5-[(propyl)(2,2,2-trifluoroethyl)amino]thiophene-2-carbonitrile] |  | EC50 [4]: 5.4 nM
24 | CCCN(CC(=O)NC)c1cc(Br)c(C#N)s1 [Example 25, N2-(4-bromo-5-cyanothiophen-2-yl)-N-methyl-N2-propylglycinamide] | 1500 | 
25 | CCCN(CC1OCCO1)c1cc(Br)c(C#N)s1 [Example 31, 3-bromo-5-[(1,3-dioxolan-2-ylmethyl)(propyl)amino]thiophene-2-carbonitrile] | 750 | 
26 | N#Cc1sc(N2CCCCC2C(O)C(F)(F)F)cc1C(F)(F)F (stereo not drawn) [Example 43, 5-[2-(2,2,2-trifluoro-1-hydroxyethyl)piperidin-1-yl]-3-trifluoromethyl-thiophene-2-carbonitrile] |  | EC50 [4]: > 10000 nM
27 | CCCN(CC(F)(F)F)c1cc(C(F)(F)F)c(C#N)s1 [Example 45, 5-[(propyl)(2,2,2-trifluoroethyl)amino]-3-trifluoromethylthiophene-2-carbonitrile] |  | EC50 [4]: 3.1 nM
28 | CCCN(CC(F)(F)F)c1cc(C)c(C#N)s1 [Example 46, 5-[(propyl)(2,2,2-trifluoroethyl)amino]-3-methylthiophene-2-carbonitrile] |  | EC50 [4]: 25.2 nM
